Structures are written as SMILES. pKi: −log10 of the molar value.

In the assay the target is Calcitonin-gene-related peptide receptor, CALCRL/RAMP1 (Homo sapiens, UniProt O60894+Q16602). Briefly: Radioligand Binding Assay: Human CGRP receptors expressed (consisting of CRLR and RAMP1) in insect Sf21 cell membrane homogenates were re-suspended in the binding buffer (10 mM HEPES, pH 7.4, 5 mM MgCl2, 0.2% BSA) to a final assay concentration of 0.6 μg protein per well. Saturation isotherms were determined by the addition of various concentrations of 3H-telcagepant (Ho et al, The Lancet, 2008, 372, 2115) (in a total reaction volume of 250 μL) for 60 min at rt. At the end of the incubation, membranes were filtered onto a unifilter, a 96-well white microplate with bonded GF/B filter pre-incubated with 0.5% PEI, with a Tomtec cell harvester and washed 5 times with distilled water. Non-specific binding (NSB) was measured in the presence of 10 nM MK-3207 hydrochloride (CAS No. 957116-20-0). Radioactivity on the filter was counted (1 min) on a microbeta counter after addition of 50 μL of scintillation fluid. For inhibition experiments, membranes were incubated with 0.5 nM 3H-telcagepant and 10 concentrations of the inhibitory compound (0.001-10 μM). IC50 values were derived from the inhibition curve and the affinity constant (Ki) values were calculated using the Cheng-Prussoff equation (Cheng et al, Biochem. Pharmacol. 1973, 22, 3099-3108).
Sequence of Calcitonin-gene-related peptide receptor, CALCRL/RAMP1 (O60894 whole entry): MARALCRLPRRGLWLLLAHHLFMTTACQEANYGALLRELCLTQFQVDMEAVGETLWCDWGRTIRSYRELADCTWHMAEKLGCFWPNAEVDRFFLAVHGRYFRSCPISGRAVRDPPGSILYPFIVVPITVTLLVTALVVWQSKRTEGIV
Sequence of Calcitonin-gene-related peptide receptor, CALCRL/RAMP1 (Q16602 whole entry): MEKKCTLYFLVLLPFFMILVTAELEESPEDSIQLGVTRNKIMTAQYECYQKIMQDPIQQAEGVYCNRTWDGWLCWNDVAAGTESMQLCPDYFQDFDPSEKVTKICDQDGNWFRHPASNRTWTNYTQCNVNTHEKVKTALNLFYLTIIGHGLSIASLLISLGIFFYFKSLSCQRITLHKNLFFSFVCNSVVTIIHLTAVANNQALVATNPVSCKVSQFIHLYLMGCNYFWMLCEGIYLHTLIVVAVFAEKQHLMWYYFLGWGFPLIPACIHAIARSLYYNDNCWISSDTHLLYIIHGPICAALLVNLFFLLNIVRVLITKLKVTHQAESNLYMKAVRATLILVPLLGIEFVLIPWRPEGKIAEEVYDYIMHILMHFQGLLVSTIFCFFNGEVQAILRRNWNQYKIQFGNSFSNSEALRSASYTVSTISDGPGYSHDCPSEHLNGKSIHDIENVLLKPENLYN

As to `Cc1cc(C[C@@H](NC(=O)N2CCC(n3c(=O)[nH]c4ncccc43)CC2)C(=O)N[C@@H](CC2CCN(CCN(C)C)CC2)C(=O)N2CCN(c3ccncc3)CC2)cc2cn[nH]c12`, the negative logarithm of the Ki (pKi) is 10.60.

In general, pKi refers to the negative decadic logarithm of the Ki, by convention in mol/L.

(Values after ChEMBL document CHEMBL5726992, “CGRP receptor antagonists” (2019).)
